According to patent US7855290B2, “Pyridine derivatives and pyrimidine derivatives (3)” (Eisai R&D Management Co., Ltd., priority 2005, dated 2010):

Tests used:
[1] = test system: Human gastric cancer cells (MKN-45); test: Inhibitory activity against the proliferation of human gastric cancer cells (MKN-45); format: cell-based; conditions: 72 h, MKN-45, 1% FBS RPMI1640, 3 days, Cell Counting Kit-8
Summary of the method: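 MKN-45 cells seeded overnight in RPMI1640 with 1% FBS, then exposed to compound for 3 days at 37° C, 5% CO2. Viability read with CCK-8 after about 1.5 hrs, absorbance at 450 nm (reference 660 nm).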

HGFR = target: T1, HGFR (Homo sapiens, UniProt P08581); test: Inhibitory activity against the HGFR autophosphorylation using ELISA (MKN-45 cells); format: cell-based; conditions: 1 hr with test substance
T1 construct: endogenous in cells; host or cells: MKN-45 human gastric cancer cells
T1 sequence (P08581 25-1390): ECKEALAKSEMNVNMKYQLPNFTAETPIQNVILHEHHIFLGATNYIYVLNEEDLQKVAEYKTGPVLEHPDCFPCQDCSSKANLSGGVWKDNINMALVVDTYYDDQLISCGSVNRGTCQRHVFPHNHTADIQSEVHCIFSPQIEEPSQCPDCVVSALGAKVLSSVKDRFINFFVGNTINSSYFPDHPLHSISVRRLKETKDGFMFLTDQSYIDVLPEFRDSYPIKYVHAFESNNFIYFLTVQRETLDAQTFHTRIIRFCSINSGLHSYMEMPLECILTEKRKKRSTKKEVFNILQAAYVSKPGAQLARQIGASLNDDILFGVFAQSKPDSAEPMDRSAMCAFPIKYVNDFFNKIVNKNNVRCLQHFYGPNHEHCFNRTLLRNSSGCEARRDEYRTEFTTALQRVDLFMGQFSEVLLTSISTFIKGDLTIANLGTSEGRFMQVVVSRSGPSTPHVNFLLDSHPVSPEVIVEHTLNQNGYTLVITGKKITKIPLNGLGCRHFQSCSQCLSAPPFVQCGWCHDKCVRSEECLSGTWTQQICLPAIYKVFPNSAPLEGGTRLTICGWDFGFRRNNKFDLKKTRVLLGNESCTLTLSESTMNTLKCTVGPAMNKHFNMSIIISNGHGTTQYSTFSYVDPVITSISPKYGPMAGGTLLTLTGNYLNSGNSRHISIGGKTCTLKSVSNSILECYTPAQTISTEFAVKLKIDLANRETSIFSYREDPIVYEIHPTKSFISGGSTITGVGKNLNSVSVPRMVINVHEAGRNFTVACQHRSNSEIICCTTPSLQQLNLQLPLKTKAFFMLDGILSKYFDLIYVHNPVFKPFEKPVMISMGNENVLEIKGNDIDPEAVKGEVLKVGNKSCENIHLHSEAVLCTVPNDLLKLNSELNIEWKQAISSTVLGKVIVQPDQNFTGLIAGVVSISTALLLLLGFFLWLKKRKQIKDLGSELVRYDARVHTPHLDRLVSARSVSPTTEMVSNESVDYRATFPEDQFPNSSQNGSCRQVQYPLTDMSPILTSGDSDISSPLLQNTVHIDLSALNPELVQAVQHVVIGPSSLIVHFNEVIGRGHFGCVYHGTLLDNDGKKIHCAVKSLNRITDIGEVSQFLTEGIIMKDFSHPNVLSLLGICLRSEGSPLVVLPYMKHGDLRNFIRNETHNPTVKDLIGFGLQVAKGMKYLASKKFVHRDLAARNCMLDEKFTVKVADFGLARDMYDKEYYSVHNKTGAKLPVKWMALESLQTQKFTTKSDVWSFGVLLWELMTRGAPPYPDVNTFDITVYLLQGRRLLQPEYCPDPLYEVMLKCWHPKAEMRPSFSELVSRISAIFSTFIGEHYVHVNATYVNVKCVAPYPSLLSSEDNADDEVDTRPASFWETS
Summary of the method: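 MKN-45 gastric cancer cells, plated overnight in 1% FBS RPMI1640, treated with compound 1 h at 37° C and lysed. Lysate captured on anti-phosphotyrosine (PY20) plates, probed with anti-HGFR then HRP anti-rabbit IgG; TMB absorbance at 450 nm. Activity expressed as % of untreated extract (100%) versus lysis buffer blank (0%).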

Row | Structure (SMILES) | IC50 [1] [nM] | IC50 (HGFR) [nM]
1 | CN(C)[C@H]1CCN(C(=O)Nc2cc(Oc3ccc(NC(=O)C4(C(=O)Nc5ccc(F)cc5)CC4)cc3)ccn2)C1 [Example 41, N-(4-{[2-({[(3S)-3-(Dimethylamino)pyrrolidin-1-yl]carbonyl}amino)pyridin-4-yl]oxy}phenyl)-N′-(4-fluorophenyl)cyclopropane-1,1-dicarboxamide] | 42 | 16
2 | CN(C)[C@@H]1CCN(C(=O)Nc2cc(Oc3ccc(NC(=O)C4(C(=O)Nc5ccc(F)cc5)CC4)cc3)ccn2)C1 [Example 42, N-(4-{[2-({[(3R)-3-(Dimethylamino)pyrrolidin-1-yl]carbonyl}amino)pyridin-4-yl]oxy}phenyl)-N′-(4-fluorophenyl)cyclopropane-1,1-dicarboxamide] | 60 | 42
3 | CCN(CC)CCCNC(=O)Nc1cc(Oc2ccc(NC(=O)C3(C(=O)Nc4ccc(F)cc4)CC3)c(Cl)c2)ccn1 [Example 43, N-[2-Chloro-4-({2-[({[3-(diethylamino)propyl]amino}carbonyl)amino]pyridin-4-yl}oxy)phenyl]-N′-(4-fluorophenyl)cyclopropane-1,1-dicarboxamide] | 280 | 330
4 | CCN(CC)CCCN(C)C(=O)Nc1cc(Oc2ccc(NC(=O)C3(C(=O)Nc4ccc(F)cc4)CC3)cc2F)ccn1 [Example 44, N-(4-{[2-({[[3-(Diethylamino)propyl](methyl)amino]carbonyl}amino)pyridin-4-yl]oxy}-3-fluorophenyl)-N′-(4-fluorophenyl)cyclopropane-1,1-dicarboxamide] | 54 | 80
5 | CCN(CC)CCCNC(=O)Nc1cc(Oc2ccc(NC(=O)C3(C(=O)Nc4ccc(F)cc4)CC3)cc2C)ccn1 [Example 45, N-[4-({2-[({[3-(Diethylamino)propyl]amino}carbonyl)amino]pyridin-4-yl}oxy)-3-methylphenyl]-N′-(4-fluorophenyl)cyclopropane-1,1-dicarboxamide] | 500 | 440
6 | CN(C)[C@H]1CCN(C(=O)Nc2cc(Oc3ccc(NC(=O)C4(C(=O)Nc5ccc(F)cc5)CC4)c(F)c3)ccn2)C1 [Example 46, N-(4-{[2-({[(3S)-3-(Dimethylamino)pyrrolidin-1-yl]carbonyl}amino)pyridin-4-yl]oxy}-2-fluorophenyl)-N′-(4-fluorophenyl)cyclopropane-1,1-dicarboxamide] | 14 | 19
7 | CN(C)[C@@H]1CCN(C(=O)Nc2cc(Oc3ccc(NC(=O)C4(C(=O)Nc5ccc(F)cc5)CC4)c(F)c3)ccn2)C1 [Example 47, N-(4-{[2-({[(3R)-3-(Dimethylamino)pyrrolidin-1-yl]carbonyl}amino)pyridin-4-yl]oxy}-2-fluorophenyl)-N′-(4-fluorophenyl)cyclopropane-1,1-dicarboxamide] | 27 | 30
8 | CN1CCC(N(C)C(=O)Nc2cc(Oc3ccc(NC(=O)C4(C(=O)Nc5ccccc5)CC4)c(F)c3)ccn2)CC1 [Example 48, N-(2-Fluoro-4-{[2-({[methyl(1-methylpiperidin-4-yl)amino]carbonyl}amino)pyridin-4-yl]oxy}phenyl)-N′-phenylcyclopropane-1,1-dicarboxamide] | 17 | 12
9 | CN1CCN(C2CCN(C(=O)Nc3cc(Oc4ccc(NC(=O)C5(C(=O)Nc6ccccc6)CC5)c(F)c4)ccn3)CC2)CC1 [Example 54, N-(2-Fluoro-4-{[2-({[4-(4-methylpiperazin-1-yl)piperidin-1-yl]carbonyl}amino)pyridin-4-yl]oxy}phenyl)-N′-phenylcyclopropane-1,1-dicarboxamide] | 20 | 24
10 | CN(C)C1CN(C2CCN(C(=O)Nc3cc(Oc4ccc(NC(=O)C5(C(=O)Nc6ccccc6)CC5)c(F)c4)ccn3)CC2)C1 [Example 55] | 43 | 16
11 | CN1CCC(N(C)C(=O)Nc2cc(Oc3ccc(NC(=O)C4(C(=O)Nc5ccc(F)cc5F)CC4)c(F)c3)ccn2)CC1 [Example 56, N-(2,4-Difluorophenyl)-N′-(2-fluoro-4-{[2-({[methyl(1-methylpiperidin-4-yl)amino]carbonyl}amino)pyridin-4-yl]oxy}phenyl)cyclopropane-1,1-dicarboxamide] | 53 | 41
12 | CN1CCC(N(C)C(=O)Nc2cc(Oc3ccc(NC(=O)C4(C(=O)Nc5ccccc5F)CC4)c(F)c3)ccn2)CC1 [Example 57, N-(2-Fluoro-4-{[2-({[methyl(1-methylpiperidin-4-yl)amino]carbonyl}amino)pyridin-4-yl]oxy}phenyl)-N′-(2-fluorophenyl)cyclopropane-1,1-dicarboxamide] | 150 | 82
13 | CN(C)[C@H]1CCN(C(=O)Nc2cc(Oc3ccc(NC(=O)C4(C(=O)Nc5ccccc5)CC4)c(F)c3)ccn2)C1 [Example 58, N-(4-{[2-({[(3S)-3-(Dimethylamino)pyrrolidin-1-yl]carbonyl}amino)pyridin-4-yl]oxy}-2-fluorophenyl)-N′-phenylcyclopropane-1,1-dicarboxamide] | 25 | 17
14 | CN(C)[C@@H]1CCN(C(=O)Nc2cc(Oc3ccc(NC(=O)C4(C(=O)Nc5ccccc5)CC4)c(F)c3)ccn2)C1 [Example 59, N-(4-{[2-({[(3R)-3-(Dimethylamino)pyrrolidin-1-yl]carbonyl}amino)pyridin-4-yl]oxy}-2-fluorophenyl)-N′-phenylcyclopropane-1,1-dicarboxamide] | 44 | 16
15 | CCN1CCC(N(C)C(=O)Nc2cc(Oc3ccc(NC(=O)C4(C(=O)Nc5ccccc5)CC4)c(F)c3)ccn2)CC1 [Example 60, N-(4-{[2-({[(1-Ethylpiperidin-4-yl)(methyl)amino]carbonyl}amino)pyridin-4-yl]oxy}-2-fluorophenyl)-N′-phenylcyclopropane-1′-dicarboxamide] | 15 | 8

Results, then the compound that gave them:

Row | IC50 [1] [nM] | IC50 (HGFR) [nM] | Structure (SMILES)
16 | 15 | 8 | O=C(Nc1cc(Oc2ccc(NC(=O)C3(C(=O)Nc4ccc(F)cc4)CC3)c(F)c2)ccn1)N1CCC1 [Example 61, N-[4-({2-[(Azetidin-1-ylcarbonyl)amino]pyridin-4-yl]oxy}-2-fluorophenyl]-N′-(4-fluorophenyl)cyclopropane-1,1-dicarboxamide]
17 | 25 | 11 | O=C(Nc1cc(Oc2ccc(NC(=O)C3(C(=O)Nc4ccc(F)cc4)CC3)c(F)c2)ccn1)N1CCCC1 [Example 62, N-(4-Fluorophenyl)-N′-[2-fluoro-4-({2-[(pyrrolidin-1-ylcarbonyl)amino]pyridin-4-yl}oxy)phenyl]cyclopropane-1,1-dicarboxamide]
18 | 54 | 21 | O=C(Nc1cc(Oc2ccc(NC(=O)C3(C(=O)Nc4ccc(F)cc4)CC3)c(F)c2)ccn1)N1CCOCC1 [Example 63, N-[2-Fluoro-4-({2-[(morpholin-4-ylcarbonyl)amino]pyridin-4-yl}oxy)phenyl]-N′-(4-fluorophenyl)cyclopropane-1,1-dicarboxamide]
19 | 57 | 20 | CN1CCN(C(=O)Nc2cc(Oc3ccc(NC(=O)C4(C(=O)Nc5ccc(F)cc5)CC4)c(F)c3)ccn2)CC1 [Example 64, N-{2-Fluoro-4-[(2-{[(1-methylpiperazin-4-yl)carbonyl]amino}pyridin-4-yl)oxy]phenyl}-N′-(4-fluorophenyl)cyclopropane-1,1-dicarboxamide]
20 | 23 | 10 | O=C(Nc1cc(Oc2ccc(NC(=O)C3(C(=O)Nc4ccc(F)cc4)CC3)cc2F)ccn1)N1CCC1 [Example 65, N-[4-({2-[(Azetidin-1-ylcarbonyl)amino]pyridin-4-yl}oxy)-3-fluorophenyl]-N′-(4-fluorophenyl)cyclopropane-1,1-dicarboxamide]
21 | 31 | 13 | O=C(Nc1cc(Oc2ccc(NC(=O)C3(C(=O)Nc4ccc(F)cc4)CC3)cc2F)ccn1)N1CCCC1 [Example 66, N-(4-Fluorophenyl)-N′-[3-fluoro-4-({2-[(pyrrolidin-1-ylcarbonyl)amino]pyridin-4-yl}oxy)phenyl]cyclopropane-1,1′-dicarboxamide]
22 | 52 | 10 | O=C(Nc1cc(Oc2ccc(NC(=O)C3(C(=O)Nc4ccc(F)cc4)CC3)cc2F)ccn1)N1CCOCC1 [Example 67, N-[3-Fluoro-4-({2-[(morpholin-4-ylcarbonyl)amino]pyridin-4-yl}oxy)phenyl]-N′-(4-fluorophenyl)-cyclopropane-1,1-dicarboxamide]
23 | 134 | 71 | O=C(Nc1cc(Oc2ccc(NC(=O)C3(C(=O)Nc4ccc(F)cc4)CC3)cc2)ccn1)N1CCOCC1 [Example 68, N-(4-Fluorophenyl)-N′-[4-({2-[(morpholin-4-ylcarbonyl)amino]pyridin-4-yl}oxy)phenyl]cyclopropane-1,1-dicarboxamide]
24 | 77 | 37 | O=C(Nc1cc(Oc2ccc(NC(=O)C3(C(=O)Nc4ccc(F)cc4)CC3)cc2)ccn1)N1CCCC1 [Example 69, N-(4-Fluorophenyl)-N′-[4-({2-[(pyrrolidin-1-ylcarbonyl)amino]pyridin-4-yl}oxy)phenyl]cyclopropane-1,1-dicarboxamide]
25 | 54 | 27 | O=C(Nc1cc(Oc2ccc(NC(=O)C3(C(=O)Nc4ccc(F)cc4)CC3)cc2)ccn1)N1CCC1 [Example 70, N-[4-({2-[(Azetidin-1-ylcarbonyl)amino]pyridin-4-yl}oxy)phenyl]-N′-(4-fluorophenyl)cyclopropane-1,1-dicarboxamide]
26 | 61 | 11 | O=C(Nc1cc(Oc2ccc(NC(=O)C3(C(=O)Nc4ccc(F)cc4)CC3)c(F)c2)ccn1)N1CCC(N2CCNCC2)CC1 [Example 71, N-(4-Fluorophenyl)-N′-{2-fluoro-4-[(2-{[(4-piperazin-1-ylpiperidin-1-yl)carbonyl]amino}pyridin-4-yl)oxy]phenyl}cyclopropane-1,1-dicarboxamide]
